Test results published in US10501458B2, “Substituted bicyclic fused ring compounds as indoleamine-2,3-dioxygenase inhibitors” (Merck Sharp & Dohme Corp., priority 2015, dated 2019).

Legend:
TDO [1] = target: T1, TDO (Homo sapiens (Human), UniProt P48775); assay: A172 kynurenine cell-based assay; details: A172 human glioblastoma cells, 500 μM L-tryptophan, 48 hours; for IC50: read-out: A172 Kynurenine cell based assay, pIC50 (converted)
Experimental: (§1) Exemplary compounds of the invention were prepared, and tested to determine their effect as TDO and/or IDO inhibitors. Two different assays were employed: 1. a cell-based assay for detecting the effect of test compounds on kynurenine production in two different cancer cell types. This assay utilised cancer cells which expressed either TDO or IDO and as such was used as a means of testing compound activity at these two enzymes in a cell-based context. 2. a TDO and IDO biochemical coupled assay which utilised recombinantly produced and purified TDO and IDO enzymes in combination with the enzyme formamidase. This coupled enzyme system allowed conversion of N-formylkynurenine produced by TDO or IDO activity to kynurenine which was then quantified by fluorescence following addition of Erhlich's Reagent The protocols for these are set out below.
(§2) Cell Based Assay for Detection of Kynurenine Produced by TDO and/or IDO
(§3) A172 (human glioblastoma) and SKOV3 (human ovarian adenocarcinoma) cells were seeded in a 96 well plate at 30,000 or 40,000 cells per well respectively in phenol red-free RPMI supplemented with 10% FCS, 2 mM L-glutamine and 500 μM L-tryptophan. IDO expression was induced in the SKOV3 cells by the addition of 500 ng/ml IFN-γ. Cells were incubated at 37° C. with or without the addition of test compound. After 48 hours, the cells were removed by centrifugation and Erhlich's reagent was added to the supernatant. The Erhlich's reagent was incubated for 5 minutes before the absorbance was read at 490 nm.

IDO [2] = target: T2, IDO (Homo sapiens (Human), UniProt P14902); assay: SKOV3 kynurenine cell-based assay (IDO induced by IFN-γ); details: SKOV3 human ovarian adenocarcinoma cells, 500 ng/ml IFN-γ, 500 μM L-tryptophan, 48 hours; for IC50: read-out: SKOV3 Kynurenine cell based assay, pIC50 (converted)
Experimental: as §1, §2, §3

IDO [3] = target: T2, IDO; assay: hIDO biochemical coupled assay; details: 45 μM L-tryptophan, 17 minutes at room temperature; for IC50: read-out: hIDO biochemical assay, pIC50 (converted)
Experimental: as §1
(§4) TDO and IDO Biochemical Coupled Assay
(§5) Recombinant human IDO or TDO was incubated in 50 mM KPO4 (pH 7.0), 0.5 mM EGTA, 0.5 mM EDTA, 0.05% Triton™ X100, 20 mM ascorbate, 10 μM methylene blue, 500 U/ml catalase, 50 μg/ml KynB (kynurenine formamidase). TDO assays were carried out in the presence of 330 μM L-tryptophan, while IDO assays had the addition of 45 μM L-tryptophan. After incubation for 17 minutes at room temperature the reactions were stopped by the addition of Erhlich's reagent and incubated at room temperature for 5 minutes before the fluorescence was read (Ex 475, Em530).

TDO [4] = target: T1, TDO; assay: hTDO biochemical coupled assay; details: 330 μM L-tryptophan, 17 minutes at room temperature
Experimental: as §1, §4, §5

T1 sequence (P48775 whole entry): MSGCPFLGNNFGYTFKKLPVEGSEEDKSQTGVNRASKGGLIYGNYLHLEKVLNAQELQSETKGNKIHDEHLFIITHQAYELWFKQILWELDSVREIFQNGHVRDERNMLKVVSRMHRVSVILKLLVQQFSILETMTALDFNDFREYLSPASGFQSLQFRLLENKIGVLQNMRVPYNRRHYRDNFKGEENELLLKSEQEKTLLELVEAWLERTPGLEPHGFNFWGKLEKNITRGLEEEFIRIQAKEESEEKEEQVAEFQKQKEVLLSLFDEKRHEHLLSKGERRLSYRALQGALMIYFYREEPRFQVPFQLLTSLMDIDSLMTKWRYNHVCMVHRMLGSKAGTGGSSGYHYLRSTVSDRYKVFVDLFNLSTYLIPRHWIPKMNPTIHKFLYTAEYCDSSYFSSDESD
T2 sequence (P14902 whole entry): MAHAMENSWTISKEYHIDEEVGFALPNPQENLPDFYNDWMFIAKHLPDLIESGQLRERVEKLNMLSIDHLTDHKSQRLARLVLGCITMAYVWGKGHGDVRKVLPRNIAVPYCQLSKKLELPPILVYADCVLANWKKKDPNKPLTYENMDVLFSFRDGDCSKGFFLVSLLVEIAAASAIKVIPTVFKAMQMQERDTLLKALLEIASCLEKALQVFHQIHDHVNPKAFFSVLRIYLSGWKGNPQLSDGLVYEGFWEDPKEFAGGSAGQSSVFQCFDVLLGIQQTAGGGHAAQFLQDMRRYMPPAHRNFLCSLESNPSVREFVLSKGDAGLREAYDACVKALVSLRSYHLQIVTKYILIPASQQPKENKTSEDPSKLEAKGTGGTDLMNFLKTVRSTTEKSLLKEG

Structure (SMILES)	A172 Kynurenine cell based assay, pIC50 (TDO [1])	SKOV3 Kynurenine cell based assay, pIC50 (IDO [2])	hIDO biochemical assay, pIC50 (IDO [3])	also measured
CS(=O)(=O)c1ccc(-c2cc(Cl)cc3cncn23)cc1 [Compound 1012]	++ (++ = pIC50 4.50-5.49)	+ (+ = pIC50 4.00-4.49)	++ (++ = pIC50 4.50-5.49)	
CC1(C)CN(c2cc(C(F)(F)F)cc3cncn23)CCN1S(C)(=O)=O [Compound 1026]	+++ (+++ = pIC50 ≥5.50)	+++ (+++ = pIC50 ≥5.50)		
CS(=O)(=O)c1ccc(-c2cc(C(F)(F)F)cc3cncn23)cc1 [Compound 1015, 5-(4-(methylsulfonyl)phenyl)-7-(trifluoromethyl)imidazo[1,5-a]pyridine]				IC50 (TDO [1]): 3.24 to 31.6 µM; IC50 (IDO [2]): 32.4 to 100 µM; IC50 (TDO [4]; read-out: hTDO biochemical assay, pIC50 (converted)): 32.4 to 100 µM; IC50 (IDO [3]): 3.24 to 31.6 µM
CC(=O)Nc1ccc(C2CCN(c3cc(C(F)(F)F)cc4cncn34)CC2)cc1 [Compound 1024]	++ (++ = pIC50 4.50-5.49)	+++ (+++ = pIC50 ≥5.50)		
CS(=O)(=O)N1CCC(Nc2cc(C(F)(F)F)cn3cncc23)CC1 [Compound 1009]	+/− (+/− = pIC50 <4.00)	++ (++ = pIC50 4.50-5.49)	+/− (+/− = pIC50 <4.00)	
CC1(C)CN(c2cc(Br)cn3cncc23)CCN1S(C)(=O)=O [Compound 1022]	+++ (+++ = pIC50 ≥5.50)	+++ (+++ = pIC50 ≥5.50)		
O=C(O)N1CCC(c2cc(C(F)(F)F)cc3cncn23)CC1 [Compound 1020]	+ (+ = pIC50 4.00-4.49)	+/− (+/− = pIC50 <4.00)	+ (+ = pIC50 4.00-4.49)	hTDO biochemical assay, pIC50 (TDO [4]): ++ (++ = pIC50 4.50-5.49)
CC(=O)N1CCN(c2cc(C(F)(F)F)cn3cncc23)CC1(C)C [Compound 1029]	+++ (+++ = pIC50 ≥5.50)	++ (++ = pIC50 4.50-5.49)		
CNC(=O)c1ccc(C2CCN(c3cc(C(F)(F)F)cc4cncn34)CC2)cc1 [Compound 1025]	++ (++ = pIC50 4.50-5.49)	+++ (+++ = pIC50 ≥5.50)		
CS(=O)(=O)N1CCN(c2cc(Cl)cc3cncn23)CC1 [Compound 1013]	+ (+ = pIC50 4.00-4.49)	+ (+ = pIC50 4.00-4.49)	++ (++ = pIC50 4.50-5.49)	hTDO biochemical assay, pIC50 (TDO [4]): ++ (++ = pIC50 4.50-5.49)
CS(=O)(=O)N1CCN(c2cc(Cl)cn3cncc23)CC1 [Compound 1006]	++ (++ = pIC50 4.50-5.49)	+ (+ = pIC50 4.00-4.49)	++ (++ = pIC50 4.50-5.49)	
CC(=O)N1CCC(c2cc(C(F)(F)F)cn3cncc23)CC1 [Compound 1004]	+ (+ = pIC50 4.00-4.49)	+/− (+/− = pIC50 <4.00)	+ (+ = pIC50 4.00-4.49)	
CS(=O)(=O)NC1CCN(c2cc(C(F)(F)F)cc3cncn23)CC1 [Compound 1027]	++ (++ = pIC50 4.50-5.49)	++ (++ = pIC50 4.50-5.49)	++ (++ = pIC50 4.50-5.49)	
CC1(C)CN(c2cc(Cl)cn3cncc23)CCN1S(C)(=O)=O [Compound 1016]	+++ (+++ = pIC50 ≥5.50)	++ (++ = pIC50 4.50-5.49)		
OC1(c2cc(C(F)(F)F)cn3cncc23)CCCCC1 [Compound 1028]	+++ (+++ = pIC50 ≥5.50)	++ (++ = pIC50 4.50-5.49)	++ (++ = pIC50 4.50-5.49)	
CC1(C)CN(c2cc(C(F)(F)F)cn3cncc23)CCN1S(C)(=O)=O [Compound 1014, 8-(3,3-dimethyl-4-(methylsulfonyl)piperazin-1-yl)-6-(trifluoromethyl)imidazo[1,5-a]pyridine]				IC50 (TDO [1]): ≤ 3.16 µM; IC50 (IDO [2]): ≤ 3.16 µM
CS(=O)(=O)c1ccc(-c2cc(C(F)(F)F)cn3cncc23)cc1 [Compound 1007]	+++ (+++ = pIC50 ≥5.50)	+ (+ = pIC50 4.00-4.49)	+ (+ = pIC50 4.00-4.49)	
CC(=O)N1CCN(c2cc(C(F)(F)F)cn3cncc23)CC1 [Compound 1002]	++ (++ = pIC50 4.50-5.49)	+ (+ = pIC50 4.00-4.49)	+/− (+/− = pIC50 <4.00)	
CS(=O)(=O)N1CCN(c2cc(C(F)(F)F)cn3cncc23)CC1 [Compound 1003]	++ (++ = pIC50 4.50-5.49)	+ (+ = pIC50 4.00-4.49)	+/− (+/− = pIC50 <4.00)	
CS(=O)(=O)N1CCC(c2cc(C(F)(F)F)cn3cncc23)CC1 [Compound 1005, 8-(1-(methylsulfonyl)piperidin-4-yl)-6-(trifluoromethyl)imidazo[1,5-a]pyridine]				IC50 (TDO [1]): 3.24 to 31.6 µM; IC50 (IDO [2]): 32.4 to 100 µM; IC50 (IDO [3]): 3.24 to 31.6 µM
CC(=O)N1CCN(c2cc(Cl)cc3cncn23)CC1(C)C [Compound 1031]	+++ (+++ = pIC50 ≥5.50)	+++ (+++ = pIC50 ≥5.50)		
CC1(C)CN(c2cc(Cl)cc3cncn23)CCN1S(C)(=O)=O [Compound 1032]	++ (++ = pIC50 4.50-5.49)	+++ (+++ = pIC50 ≥5.50)		
CS(=O)(=O)Nc1ccc(C2CCN(c3cc(C(F)(F)F)cc4cncn34)CC2)cc1 [Compound 1023]	++ (++ = pIC50 4.50-5.49)	+++ (+++ = pIC50 ≥5.50)		
CS(=O)(=O)N1CCC(Nc2cc(Cl)cc3cncn23)CC1 [Compound 1030]	++ (++ = pIC50 4.50-5.49)	++ (++ = pIC50 4.50-5.49)		
CC(=O)N1CCN(c2cc(Cl)cn3cncc23)CC1(C)C [Compound 1033]	+++ (+++ = pIC50 ≥5.50)	++ (++ = pIC50 4.50-5.49)		
CS(=O)(=O)c1ccc(-c2cc(Cl)cn3cncc23)cc1 [Compound 1010, 6-chloro-8-(4-(methylsulfonyl)phenyl)imidazo[1,5-a]pyridine]				IC50 (TDO [1]): ≤ 3.16 µM; IC50 (IDO [2]): 32.4 to 100 µM; IC50 (IDO [3]): 3.24 to 31.6 µM
